For 39 compounds, Kd and GI50 results are on record in US20230242544A1, “QUINAZOLINE COMPOUNDS, PREPARATION METHODS AND USES THEREOF” (INVENTISBIO CO., LTD., priority 2020, published 2023).

In assay [1] the target is recombinant human KRAS^G12D protein (Homo sapiens, UniProt P01116, G12D). As to the kind of experiment: Temperature-dependent Fluorescence (TdF) KRAS G12D protein binding assay. The note with it: 6 μM KRAS^G12D protein, 10 μM compound, Sypro Orange; Kd calculated from the fluorescent shift. Put shortly:
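Thermal-shift binding with Sypro Orange: 6 μM KRAS^G12D and 10 μM compound in 25 mM HEPES pH 7.5, 150 mM NaCl, 10 mM MgCl2, 1% DMSO. Binding read as ΔTm with versus without compound; Kd calculated from the degree of fluorescence shift.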

The next assay concerns the target Ba/F3_KRAS^G12D cells (Homo sapiens, UniProt P01116, G12D, cells depend on it). Put plainly: Ba/F3 KRAS G12D cell proliferation assay (CellTiter-Glo). In kind it is cell-based. The settings on record: treated for 3 days, cell-titer Glo, cell growth inhibition, read-out: BaF3_KRAS^G12D IC50. The essentials:
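KRAS G12D-transduced Ba/F3 cells, IL3-independent and puromycin-selected, seeded at 5×10^3/well overnight, then given serially diluted compound for 3 days. Proliferation read by CellTiter-Glo luminescence. IC50 from a four-parameter logistic fit with Hill slope.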

Ba/F3_KRAS^G12D cells, sequence (P01116 whole entry G12D): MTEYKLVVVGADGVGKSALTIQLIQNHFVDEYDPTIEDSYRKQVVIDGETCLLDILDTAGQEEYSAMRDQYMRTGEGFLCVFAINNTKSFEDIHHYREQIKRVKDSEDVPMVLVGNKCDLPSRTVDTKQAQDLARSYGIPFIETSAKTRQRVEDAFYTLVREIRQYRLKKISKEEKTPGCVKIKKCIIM
recombinant human KRAS^G12D protein, sequence (P01116 1-188 isoform P01116-2 G12D): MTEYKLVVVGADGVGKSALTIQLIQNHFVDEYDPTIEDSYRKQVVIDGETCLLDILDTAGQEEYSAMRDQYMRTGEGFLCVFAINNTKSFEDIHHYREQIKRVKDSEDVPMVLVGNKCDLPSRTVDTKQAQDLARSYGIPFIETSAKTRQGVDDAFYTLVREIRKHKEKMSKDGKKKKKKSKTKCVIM

In the case of `Oc1cc(-c2c(Cl)cc3c(N4CC5CCC(C4)N5)nc(OC[C@@]45CCCN4C[C@H](F)C5)nc3c2F)c2c(Cl)c(F)ccc2c1` [Compound 74], the dissociation constant Kd in assay [1] is less than 500 nM. Moreover, on Ba/F3_KRAS^G12D cells, the GI50 is less than 500 nM.

Turning to `Cc1cccc2[nH]nc(-c3c(Cl)cc4c(N5CC6CCC(C5)N6)nc(OC[C@@H]5CCCN5C)nc4c3F)c12` [Compound 75], the Kd in assay [1] is greater than 5000 nM. In addition, the GI50 at Ba/F3_KRAS^G12D cells is 500 to 5000 nM.

For the compound `CN1C[C@H](F)C[C@H]1COc1nc(N2CC3CCC(C2)N3)c2cc(Cl)c(-c3cc(O)cc4ccccc34)c(F)c2n1` [Compound 76], in assay [1], the dissociation constant Kd was less than 500 nM. Besides, on Ba/F3_KRAS^G12D cells, the GI50 was 500 to 5000 nM.

`Oc1cc(-c2c(Cl)cc3c(N4CC5CCC(C4)N5)nc(OCCN4CCCC4)nc3c2F)c2ccccc2c1` [Compound 78]: the Kd in assay [1] is greater than 5000 nM. In addition, the GI50 at Ba/F3_KRAS^G12D cells fell in the range of 500 to 5000 nM.

Take `CN1CCC1COc1nc(N2CC3CCC(C2)N3)c2cc(Cl)c(-c3cc(O)cc4ccccc34)c(F)c2n1` (stereo not drawn) [Compound 79]: the Kd in assay [1] was less than 500 nM. Also, at Ba/F3_KRAS^G12D cells, the GI50 lay within 500 to 5000 nM.

With `CN1C[C@H](O)C[C@H]1COc1nc(N2CC3CCC(C2)N3)c2cc(Cl)c(-c3cc(O)cc4ccccc34)c(F)c2n1` [Compound 80], the Kd in assay [1] is less than 500 nM. Further, the GI50 at Ba/F3_KRAS^G12D cells is greater than 5000 nM.

`Oc1cc(-c2c(Cl)cc3c(N4CC5CCC(C4)N5)nc(OCC45CCCN4CC(F)(F)C5)nc3c2F)c2ccccc2c1` (stereo not drawn) [Compound 81]: the Kd in assay [1] is less than 500 nM. The GI50 on Ba/F3_KRAS^G12D cells fell in the range of 500 to 5000 nM.

For `Oc1cc(-c2ccc3c(N4CC5CCC(C4)N5)nc(OCC45CCCN4CCC5)nc3c2F)c2c(Cl)cccc2c1` [Compound 82], the Kd in assay [1] is greater than 5000 nM. The GI50 on Ba/F3_KRAS^G12D cells was greater than 5000 nM.

Consider `CN1CCN(c2nc(N3CC4CCC(C3)N4)c3cc(Cl)c(-c4cc(O)cc5ccccc45)c(F)c3n2)CC1` [Compound 83], for which the Kd in assay [1] was greater than 5000 nM. For the same compound, the GI50 at Ba/F3_KRAS^G12D cells is 500 to 5000 nM.

As for `Oc1cc(-c2c(Cl)cc3c(N4CC5CCC(C4)N5)nc(OCC45CCCN4CCC5)nc3c2F)c2ccccc2c1` [Compound 85], in assay [1], the Kd was less than 500 nM. In addition, the GI50 on Ba/F3_KRAS^G12D cells was less than 500 nM.

For the compound `N#Cc1cc2c(N3CC4CCC(C3)N4)nc(OC[C@@]34CCCN3C[C@H](F)C4)nc2c(F)c1-c1cc(O)cc2ccccc12` [Compound 86], in assay [1], the Kd was less than 500 nM. The GI50 on Ba/F3_KRAS^G12D cells was less than 500 nM.

`Cc1cccc2cccc(-c3c(C#N)cc4c(N5CC6CCC(C5)N6)nc(OC[C@@]56CCCN5C[C@H](F)C6)nc4c3F)c12` [Compound 87]: in assay [1], the Kd was 500 to 5000 nM. The GI50 at Ba/F3_KRAS^G12D cells lay in the range of 500 to 5000 nM.

For the compound `Cc1cccc2cc(O)cc(-c3c(C#N)cc4c(N5CC6CCC(C5)N6)nc(OC[C@@]56CCCN5C[C@H](F)C6)nc4c3F)c12` [Compound 88], the dissociation constant Kd in assay [1] was less than 500 nM. In addition, the GI50 at Ba/F3_KRAS^G12D cells is less than 500 nM.

Turning to `N#Cc1cc2c(N3CC4CCC(C3)N4)nc(OC[C@@]34CCCN3C[C@H](F)C4)nc2c(F)c1-c1cccc2cccc(Cl)c12` [Compound 89], the Kd in assay [1] was 500 to 5000 nM. For the same compound, on Ba/F3_KRAS^G12D cells, the GI50 fell in the range of 500 to 5000 nM.

Regarding `N#Cc1cc2c(N3CC4CCC(C3)N4)nc(OC[C@@]34CCCN3C[C@H](F)C4)nc2c(F)c1-c1c(N)cccc1F` [Compound 91], the equilibrium dissociation constant (Kd) in assay [1] was greater than 5000 nM. Moreover, the GI50 on Ba/F3_KRAS^G12D cells fell in the range of 500 to 5000 nM.

Turning to `Cc1ccc2[nH]ncc2c1-c1c(C#N)cc2c(N3CC4CCC(C3)N4)nc(OC[C@@]34CCCN3C[C@H](F)C4)nc2c1F` [Compound 92], in assay [1], the Kd is less than 500 nM. In addition, on Ba/F3_KRAS^G12D cells, the GI50 was less than 500 nM.

With `N#CC[C@H]1CN(c2nc(OC[C@@]34CCCN3C[C@H](F)C4)nc3c(F)c(-c4cc(O)cc5ccccc45)c(Cl)cc23)CCN1` [Compound 96], the dissociation constant Kd in assay [1] is greater than 5000 nM. Moreover, the GI50 on Ba/F3_KRAS^G12D cells was in the range of 500 to 5000 nM.

Turning to `Cc1cc(F)c2sc(N)nc2c1-c1c(Cl)cc2c(N3CC4CCC(C3)N4)nc(OC[C@@]34CCCN3C[C@H](F)C4)nc2c1F` [Compound 100], the equilibrium dissociation constant (Kd) in assay [1] is less than 500 nM. For the same compound, the GI50 at Ba/F3_KRAS^G12D cells lay in the range of 500 to 5000 nM.

On to `Cc1cc(-c2c(Cl)cc3c(N4CC5CCC(C4)N5)nc(OC[C@@H]4CCCN4C)nc3c2F)cc2[nH]ncc12` [Compound 109], for which the dissociation constant (Kd) in assay [1] was greater than 5000 nM. For the same compound, on Ba/F3_KRAS^G12D cells, the GI50 was in the range of 500 to 5000 nM.

As to `Nc1cc2ccccc2c(-c2c(Cl)cc3c(N4CC5CCC(C4)N5)nc(OCC45CCCN4CCC5)nc3c2F)n1` [Compound 116], the Kd in assay [1] is 500 to 5000 nM. The GI50 at Ba/F3_KRAS^G12D cells is greater than 5000 nM.

With `CN1CCC[C@H]1COc1nc(-c2cnc(N)s2)c2cc(Cl)c(-c3cc(O)cc4cccc(Cl)c34)c(F)c2n1` [Compound 121], in assay [1], the Kd is greater than 5000 nM. The GI50 on Ba/F3_KRAS^G12D cells was greater than 5000 nM.

In the case of `CNC(=O)c1cc2c(N3CC4CCC(C3)N4)nc(OC[C@@]34CCCN3C[C@H](F)C4)nc2c(F)c1-c1cc(O)cc2cccc(Cl)c12` [Compound 122], the Kd in assay [1] is less than 500 nM. Further, the GI50 at Ba/F3_KRAS^G12D cells was greater than 5000 nM.

For `Oc1cc(-c2c(OCC3CC3)cc3c(N4CC5CCC(C4)N5)nc(OC[C@@]45CCCN4C[C@H](F)C5)nc3c2F)c2c(Cl)cccc2c1` [Compound 124], the Kd in assay [1] was less than 500 nM. Further, the GI50 at Ba/F3_KRAS^G12D cells is less than 500 nM.

In the case of `Oc1cc(-c2c(Cl)cc3c(N4CCNCC4)nc(OC[C@@]45CCCN4C[C@H](F)C5)nc3c2F)c2ccccc2c1` [Compound 126], the dissociation constant Kd in assay [1] is 500 to 5000 nM. At Ba/F3_KRAS^G12D cells, the GI50 was in the range of 500 to 5000 nM.

Regarding `C[C@H]1CNCCN1c1nc(OC[C@@]23CCCN2C[C@H](F)C3)nc2c(F)c(-c3cc(O)cc4ccccc34)c(Cl)cc12` [Compound 127], the dissociation constant (Kd) in assay [1] is 500 to 5000 nM. Moreover, the GI50 on Ba/F3_KRAS^G12D cells is 500 to 5000 nM.

For the compound `C[C@@H]1CN(c2nc(OC[C@@]34CCCN3C[C@H](F)C4)nc3c(F)c(-c4cc(O)cc5ccccc45)c(Cl)cc23)[C@@H](C)CN1` [Compound 128], the Kd in assay [1] was greater than 5000 nM. Besides, the GI50 on Ba/F3_KRAS^G12D cells fell in the range of 500 to 5000 nM.

Regarding `N#Cc1cc2c(N3CC4CCC(C3)N4)nc(OC[C@@]34CCCN3C[C@H](F)C4)nc2c(F)c1-c1cc(O)cc2ccc(F)c(Cl)c12` [Compound 129], the Kd in assay [1] is less than 500 nM. On Ba/F3_KRAS^G12D cells, the GI50 was less than 500 nM.

Regarding `Cc1cc(N)nc(-c2c(Cl)cc3c(N4CC5CCC(C4)N5)nc(OC[C@@H]4CCCN4C)nc3c2F)c1` [Compound 130], in assay [1], the Kd is greater than 5000 nM. For the same compound, at Ba/F3_KRAS^G12D cells, the GI50 is greater than 5000 nM.

In the case of `Cc1cccc2cccc(-c3c(Cl)cc4c(N5CC6CCC(C5)N6)nc(OC[C@@]56CCCN5C[C@H](F)C6)nc4c3F)c12` [Compound 131], the Kd in assay [1] was less than 500 nM. Besides, the GI50 on Ba/F3_KRAS^G12D cells lay in the range of 500 to 5000 nM.

On to `Nc1nc2c(-c3c(Cl)cc4c(N5CC6CCC(C5)N6)nc(OC[C@@]56CCCN5C[C@H](F)C6)nc4c3F)cc(C(F)(F)F)cc2s1` [Compound 132], for which the Kd in assay [1] was less than 500 nM. In addition, the GI50 at Ba/F3_KRAS^G12D cells fell in the range of 500 to 5000 nM.

Turning to `Cc1cc(N)nc(-c2c(Cl)cc3c(N4CCN[C@@H](CC#N)C4)nc(OC[C@@H]4C[C@@H](F)CN4C)nc3c2F)c1C(F)(F)F` [Compound 135], in assay [1], the Kd was greater than 5000 nM. In addition, the GI50 at Ba/F3_KRAS^G12D cells was greater than 5000 nM.

As for `Cc1cccc2cc(F)cc(-c3c(Cl)cc4c(N5CC6CCC(C5)N6)nc(OC[C@@]56CCCN5C[C@H](F)C6)nc4c3F)c12` [Compound 137], the Kd in assay [1] was less than 500 nM. The GI50 on Ba/F3_KRAS^G12D cells is 500 to 5000 nM.

Take `Nc1nc2c(-c3c(Cl)cc4c(N5CC6CCC(C5)N6)ncnc4c3F)ccc(F)c2s1` [Compound 140]: the equilibrium dissociation constant (Kd) in assay [1] was 500 to 5000 nM. For the same compound, the GI50 at Ba/F3_KRAS^G12D cells is 500 to 5000 nM.

In the case of `Cc1cc(N)nc(-c2c(Cl)cc3c(N4CC5CCC(C4)N5)nc(OC[C@@]45CCCN4C[C@H](F)C5)nc3c2F)c1C(F)(F)F` [Compound 142], in assay [1], the Kd is less than 500 nM. The GI50 at Ba/F3_KRAS^G12D cells is less than 500 nM.

With `Nc1nc2c(-c3c(Cl)cc4c(N5CC6CCC(C5)N6)nc(OC[C@@]56CCCN5C[C@H](F)C6)nc4c3F)ccc(C(F)(F)F)c2s1` [Compound 143], the dissociation constant (Kd) in assay [1] is less than 500 nM. Besides, the GI50 at Ba/F3_KRAS^G12D cells was 500 to 5000 nM.

In the case of `COc1nc(N2CC3CCC(C2)N3)c2cc(Cl)c(-c3nc(N)cc(C)c3C(F)(F)F)c(F)c2n1` [Compound 144], the Kd in assay [1] is greater than 5000 nM. The GI50 at Ba/F3_KRAS^G12D cells lay within 500 to 5000 nM.

For the compound `C#Cc1c(F)ccc2cc(O)cc(-c3c(Cl)cc4c(N5CC6CCC(C5)N6)nc(OC[C@@]56CCCN5C[C@H](F)C6)nc4c3F)c12` [Compound 146], the Kd in assay [1] was less than 500 nM. The GI50 at Ba/F3_KRAS^G12D cells was less than 500 nM.

Take `C#Cc1c(F)ccc2cc(O)cc(-c3c(OC)cc4c(N5CC6CCC(C5)N6)nc(OC[C@@]56CCCN5C[C@H](F)C6)nc4c3F)c12` [Compound 163]: the Kd in assay [1] was less than 500 nM. Further, the GI50 on Ba/F3_KRAS^G12D cells was less than 500 nM.

Regarding `C#Cc1c(F)ccc2cc(O)cc(-c3cc(Cl)c4c(N5CC6CCC(C5)N6)nc(OC[C@@]56CCCN5C[C@H](F)C6)nc4c3F)c12` [Compound 168], the Kd in assay [1] is less than 500 nM. Besides, the GI50 on Ba/F3_KRAS^G12D cells is less than 500 nM.
